The values that follow come from US9744236B2, “Photolabile compounds” (The Trustees of Columbia University in the City of New York, priority 2009, dated 2017).

Data set [1] can be described thus: Cyclic voltammetry, redox potential. It counts as physicochemical. As to conditions: acetonitrile, vs. NHE. The method, then:
UV-vis spectra in water were obtained with an HP 8453 diode array spectrophotometer. RMN ^1H spectra were obtained using a Bruker 500 MHz equipment. CV measurements were performed with a PAR 273A potentiostat. Irradiation was effected by means of a pulsed Xe lamp, (pulse energy ˜0.5 J), with a low-pass filter at 480 nm. Irradiation using a 473 nm DPSS laser gave similar results.
(See, e.g., E. S. Dodsworth et al., 1986, Chem. Phys. Lett., 124:152-158). The photoactivity of these compounds has been explained in terms of a reaction pathway that involves the transition between the MLCT state to a lower-energy d-d state, which promotes ligand release. There is a direct correspondence between the energy of the MLCT transition and the quantum yield of the photoreaction. For [Ru(bpy)2(4AP)CH3CN]^2+, the photoreaction yield is about φPR=0.4. Since [Ru(bpy)2(4AP)2]Cl2 presents a red-shifted band, a lower photoreaction yield is expected. An estimate based on early experiments leads to an estimate of φPR≅0.02 at 473 nm.
Its aqueous solutions present a strong metal to ligand charge-transfer band (MLCT band) at 450 nm, characteristic of this family of Ru polypyridines.

Data set [2] can be described thus: Flash photolysis, uncaging time. As to conditions: basic aqueous solution, 532 nm, 10 ns pulse. The class given is physicochemical. As to the method:
In order to estimate the uncaging time, a flash photolysis experiment was performed on a basic aqueous solution of [Ru(bpy)2(PMe3)Glu] using the second harmonic of a Nd-YAGlaser (532 nm, 10 ns pulse). The photocleavage occurs within the first 50 ns, being the fastest reported caged compound, to our knowledge. The fact that a tens of nanoseconds are required to complete the glutamate uncaging reaction is compatible with the observation that the excited state lifetime measured for a similar compound containing pyridine instead of glutamate is in the range of 10-100 ns.

Data set [3] is described as follows: Photorelease of glutamate, UV-Vis during 450 nm LED irradiation. It counts as physicochemical. As to the method: As the photoreaction proceeds, the generation of the aquo complex was recorded to reach completion in about 4 minutes. The presence of two isosbestic points as well as a factor analysis performed on the spectra indicate that just two colored species are present in the solution, according to what is expected in a single photoaquation process. The spectrum of the photoproduct was found identical to that of the complex [Ru(bpy)2(PMe3)(H2O)]2^+, which can be synthesized by refluxing the chloro complex in water. At pH=11 a similar behavior was observed, although in this case the product is the hydroxo complex [Ru(bpy)2(PMe3)(OH)]^+.
The irradiance of the light source was calibrated using the known efficiency of the photolysis of [Ru(bpy)(Py)2]^2+. The amount of photoreleased glutamate was fitted using a two-parameter single-exponential function: y=a[1−exp(−bx)] and the quantum yield (φPC) was obtained as a•b, adopting a value of 0.13 at pH=7 and 0.10 at pH=11.

Data set [4] concerns living neocortical pyramidal neurons in mouse brain slices. The data set is described as follows: Biocompatibility test on brain slices (two-photon microscopy, whole-cell patch recordings). It counts as cell-based. As to conditions: 350 μM, 1 hour of incubation. As to the method:
Biocompatibility tests were performed to evaluate the potential toxicity of the complex. 350 μM [Ru(bpy)2(PMe3)Glu], a concentration used for two-photon uncaging experiments, was incubated with living neocortical pyramidal neurons in mouse brain slices, and carefully monitored the morphology and electrophysiological properties of the neurons using two-photon microscopy and whole-cell patch recordings.

The nature of data set [5]: 1H-NMR in D2O, isotopic exchange / inertness. It counts as physicochemical. The conditions noted are these: 2 months in D2O at room temperature. An excerpt:
The aliphatic region corresponding to the glutamate moiety is depicted in the upper trace of FIG. 18, where —NH2 protons appear at 4.50, 4.12, 4.00 and 3.57 ppm. […] This behavior differs from that of free glutamate which, under the same conditions, exchanges rapidly D+ for H+.

The conditions of data set [6]: in aqueous solutions; cited from earlier work.
A further data set has as its system Retzius cells. Description: Injection of caged fluorescent probe into living neurons. The class given is cell-based, Hirudo medicinalis. The conditions noted are these: short-term (˜2 h) experiments. The method, then:
Microscopy of leech (Hirudo medicinalis) ganglia was performed in a custom-made setup for photoelectrophisiology equipped with a micromanipulator used to impale the neuron body with the ˜1 μm tip diameter capillaries, and a CCD webcam as a registering device. An isolated leech ganglion from a segment between 7 and 14 was pinned down in a sylgard-coated, 35 mm Petri dish. Retzius cells were identified by their position, size, and firing behavior. Intracellular recordings were obtained with ˜20 MΩ sharp capillary microelectrodes, a Neuroprobe 1600 (A-M Systems) amplifier and a A/D signal acquisition board at 1 kHz sampling rate and custom-made software. For iontophoretical injection of the dye the microelectrode was filled with recording solution to which 1 mM caged fluorescent dye (chloride form) was added. Square, biphasic pulses of 1 nA, 2 Hz were applied for less that 5 min.
This example provides an activatable fluorescent probe with surprising sensitivity in the visible light region. It increases its intrinsic fluorescence up to 6-fold after blue light irradiation. […] The probe was used to image the laminar flow inside a thin spectrophotometric flow cell and to visualize the parabolic-shaped flow in a FIA capillary.

Data set [7] can be described thus: Fluorescence emission quantum yield before and after irradiation. It counts as physicochemical. As to conditions: after blue light (473 nm) irradiation. From the text: All reagents were purchased from Sigma-Aldrich and used as received. Ru(bpy)2Cl2 was synthesized according to the literature using water as solvent (Viala, C.; Coudret, C. Inorg. Chim. Acta 2006, 359: 984-989). UV-vis spectra were taken with a HP8453 diode-array spectrometer. NMR spectra were obtained using a 500 MHz Bruker AM-500. Fluorescence emission measurements were made with a PTI Quantamaster spectrofluorometer, corrected for the instruments response function. Rhodamine B was used as fluorescence standard of emission quantum yield (φ=0.31 in aqueous solutions). Quantum yield of the complex was obtained directly from the ratio of the spectral areas, which present the same shape.
FIG. 20 depicts the emission spectra of the complex during irradiation. The maximum and the shape of the initial emission spectrum is the same as that of the free ligand RhodB-MAPN but the emission quantum yield is much lower, around pt=0.04. Quantum yields are easily calculated integrating the spectral areas. After irradiation with a 473 nm laser, RhodB-MAPN is released and the solution increases its fluorescence up to 6 fold, to φt=0.24.

The nature of data set [8]: Behaviour of modified rhodamine ligand at physiological pH. The class given is physicochemical. An excerpt:
Given these properties, the chemical structure of rhodamine B was modified by adding a “sticky tail” in order to coordinate the fluorescent molecule to the metal center. In a first attempt to synthesize a modified rhodamine bearing a coordinating group, carboxylate was amidated with aminopropionitrile, using the Adamczyk procedure (Adamczyk, M. J. Bioorg. Med. Chem. Lett. 2000, 10: 1539-1541). The obtained compound is RhodB-APN, indicated in scheme 1B. […] Rhodamine 6G can be modified similarly to the rhodamine B, described above.

Some results are limits rather than exact numbers.

For `CP(C)C.F[P-](F)(F)(F)(F)F.F[P-](F)(F)(F)(F)F.NC(CCC(=O)O)C(=O)O.[Ru+2].c1ccc(-c2ccccn2)nc1.c1ccc(-c2ccccn2)nc1` [[Ru(bpy)2(PMe3)GlutH2](PF6)2], in [1], the “redox process, Ru(III)/Ru(II) couple of the original complex” value was 0.98 V. Moreover, the photocleavage time in data set [2] is not above 50 ns. The entries for the “quantum yield (φPC) of glutamate photorelease” value in data set [3] (pH=7) and in data set [3] (pH=11) were 0.13 and 0.10, respectively. Besides, the “time for photoreaction to reach completion” value in data set [3] (pH=7, 450±20 nm LED) was “about 4 minutes”. The “effects on morphology and electrophysiological properties of neurons” value in data set [4] is listed as “no detectable effects were observed”. The “isotopic exchange of coordinated -NH2 (inertness)” value in data set [5] was “no exchange is seen”.
For the compound `CCN(CC)c1ccc2c(-c3ccccc3C(=O)O)c3ccc(=[N+](CC)CC)cc-3oc2c1.[Cl-]` [Rhodamine B], the “emission quantum yield (fluorescence standard)” value in [6] is reported as 0.31.
Regarding `CCN(CC)c1ccc2c(-c3ccccc3C(=O)N(C)CCC#N)c3ccc(=[N+](CC)CC)cc-3oc2c1.[Cl-].[Cl][Ru+].c1ccc(-c2ccccn2)nc1.c1ccc(-c2ccccn2)nc1` [[Ru(bpy)2(RhodB-MAPN)Cl]Cl], the “acute toxicity in injected living cells” value in the data set on Retzius cells is “no sign of acute toxicity”. In addition, the increase of fluorescence entry in [7] is given as “up to 6 fold”.
In the case of `CCN(CC)c1ccc2c(-c3ccccc3C(=O)NCCC#N)c3ccc(=[N+](CC)CC)cc-3oc2c1` [RhodB-APN], in data set [8], the “stability of fluorescent form” value is on record as “undergoes isomerization to the cyclic spirolactame form”.
